Here are results for 52 compounds from the RepoRT retention time repository (doi:10.1016/j.chroma.2019.01.023).

Conditions in all cases: stereoisomer not certain
Series [1] can be described thus: HILIC, Merck SeQuant ZIC-pHILIC, 150 × 2.1 mm, 5 µm, 40 °C, 0.3 mL/min, estimated dead time 1.1 min; A: acetonitrile; B: water + 2.8 mM ammonium formate, pH 9; gradient (min/%B) 0/5 1/5 10/51 13/51 13.1/5 20/5.
Series [2] can be described thus: HILIC, Waters ACQUITY UPLC BEH Amide, 150 × 2.1 mm, 1.7 µm, 40 °C, 0.5 mL/min, estimated dead time 0.66 min; A: 5% water + 95% acetonitrile; B: 70% water + 30% acetonitrile + 10 mM ammonium formate, pH 6.5; gradient (min/%B) 0/0 2/0 20/70 23/70 24/0 31/0.
Series [3] is described as follows: RP, Phenomenex Kinetex C18, 150 × 2.1 mm, 1.7 µm, 30 °C, 0.3 mL/min, estimated dead time 1.1 min; A: water + 0.1% formic acid, pH 3; B: acetonitrile + 0.1% formic acid, pH 3; gradient (min/%B) 0/2 14/100 17/100 17.1/2 25/2.

In the case of `O=c1cccc(O)[nH]1` [2,6-DIHYDROXYPYRIDINE], the figures for the LC retention time in series [1], in series [2] and in series [3] were 6.67 min, 4.81 min and 1.95 min, respectively.

For the compound `Nc1ccccc1O` [2-AMINOPHENOL], the LC retention time is 7.38 min in series [1], 0.87 min in series [2] and 1.52 min in series [3].

Take `CSCCC(O)C(=O)O` (stereo not given) [2-HYDROXY-4-(METHYLTHIO)BUTANOATE]: the LC retention time in series [1] is 4.59 min; in series [2], 1.29 min; in series [3] it was 3.82 min.

As for `O=C(O)Cc1ccccc1O` [2-HYDROXYPHENYLACETATE], the LC retention time is 0.9 min in series [2] and 4.46 min in series [3].

Turning to `CC(CCC(=O)O)C(=O)O` (stereo not given) [2-METHYLGLUTARATE], the LC retention time in series [1] was 7.37 min; in series [2], 5.2 min; in series [3], 3.85 min.

With `O=C([O-])CCc1ccccc1O` [3-(2-HYDROXYPHENYL)PROPANOATE], the LC retention time in series [1] is 2.12 min; in series [2] it was 1.02 min; in series [3], 6.02 min.

For the compound `Nc1cc(C(=O)O)ccc1[O-]` [3-AMINO-4-HYDROXYBENZOATE], the figures for the LC retention time in series [1], in series [2] and in series [3] were 7.39 min, 1.84 min and 1.52 min, respectively.

For `Nc1c([O-])cccc1C(=O)O` [3-HYDROXYANTHRANILATE], the LC retention time in series [1] is 6.24 min; in series [2] it was 1.39 min; in series [3] it was 3.68 min.

For `CCC(C)C(=O)C(=O)[O-]` (stereo not given) [3-METHYL-2-OXOVALERATE], the values for the LC retention time in series [2] and in series [3] were 1.83 min and 4.14 min, respectively.

Regarding `NC(N)=NCCCC(=O)O` [4-GUANIDINOBUTANOATE], the LC retention time in series [2] is 10.1 min; in series [3], 1.39 min.

On to `O=Cc1ccc(O)cc1` [4-HYDROXYBENZALDEHYDE], for which the LC retention time in series [1] was 1.43 min; in series [2] it was 2.67 min; in series [3], 5.11 min.

With `O=C(O)CCCCCCCCCO` [10-HYDROXYDECANOATE], the LC retention time in series [1] was 1.44 min; in series [2], 1 min; in series [3], 7.13 min.

Turning to `Nc1ncnc2c1ncn2C1OC(CO)C2OP(=O)(O)OC21` (stereo not given) [ADENOSINE 2',3'-CYCLIC PHOSPHATE], the LC retention time was 6.94 min in series [1], 6.69 min in series [2] and 1.73 min in series [3].

For the compound `Nc1ncnc2c1ncn2C1OC(CO)C(O)C1O` (stereo not given) [ADENOSINE], the LC retention time is 5.92 min in series [1], 3.85 min in series [2] and 2.34 min in series [3].

With `O=C([O-])CCCCC(=O)[O-]` [ADIPATE], the figures for the LC retention time in series [1], in series [2] and in series [3] were 8.71 min, 5.26 min and 3.73 min, respectively.

For `C=CC1=C(C)C(C=c2[nH]c(=Cc3[nH]c(C=C4NC(=O)C(C)=C4C=C)c(C)c3CCC(=O)O)c(CCC(=O)O)c2C)=NC1=O` [BILIVERDIN], the LC retention time in series [2] is 1.13 min; in series [3], 9.08 min.

As for `Nc1ccn(C2OC(CO)C(O)C2O)c(=O)n1` (stereo not given) [CYTIDINE], the LC retention time was 7.29 min in series [1], 6.3 min in series [2] and 1.39 min in series [3].

As for `CCCCCCCCCC(=O)OCC(COP(=O)([O-])OCC[N+](C)(C)C)OC(=O)CCCCCCCCC` (stereo not given) [DIDECANOYL-GLYCEROPHOSPHOCHOLINE], the LC retention time is 1.65 min in series [1], 5.15 min in series [2] and 12.8 min in series [3].

In the case of `NCCc1ccc(O)c(O)c1` [DOPAMINE], the LC retention time in series [2] is 8.68 min; in series [3], 1.62 min.

For `O=C(O)CCCC(=O)O` [GLUTARATE], the LC retention time is 2 min in series [2] and 2.92 min in series [3].

For `C[N+](C)(C)CC(CC(=O)[O-])OC(=O)CCCC(=O)O` (stereo not given) [GLUTARYLCARNITINE], the LC retention time in series [2] was 11.9 min; in series [3], 2.56 min.

As to `O=C(O)Cc1cc(O)ccc1O` [HOMOGENTISATE], the values for the LC retention time in series [1], in series [2] and in series [3] were 6.88 min, 1.27 min and 3.31 min, respectively.

Turning to `COc1cc(CC(=O)O)ccc1O` [HOMOVANILLATE], the figures for the LC retention time in series [1], in series [2] and in series [3] were 4.78 min, 1.59 min and 4.81 min, respectively.

`O=C(O)C(O)Cc1ccc(O)cc1` (stereo not given) [HYDROXYPHENYLLACTATE]: the LC retention time was 6.83 min in series [1], 1.4 min in series [2] and 3.97 min in series [3].

Consider `CC(C)CC(N)C(=O)O` (stereo not given) [LEUCINE], for which the LC retention time in series [1] is 7.02 min; in series [2], 7.96 min; in series [3] it was 2.05 min.

Turning to `CC(CCC(=O)O)C1CCC2C3CCC4CC(O)CCC4(C)C3CCC12C` (stereo not given) [LITHOCHOLATE], the LC retention time is 0.84 min in series [2] and 12.8 min in series [3].

On to `CSCCC(N)C(=O)O` (stereo not given) [METHIONINE], for which the results for the LC retention time in series [1], in series [2] and in series [3] were 7.53 min, 8.53 min and 1.43 min, respectively.

As for `CC(CC(=O)O)CC(=O)O` [METHYGLUTARATE], the LC retention time in series [1] is 7.27 min; in series [2], 1.27 min; in series [3] it was 3.85 min.

`CC1(O)CCOC(=O)C1` (stereo not given) [MEVALOLACTONE]: the LC retention time is 0.89 min in series [2] and 2.04 min in series [3].

Take `CC(O)(CCO)CC(=O)[O-]` (stereo not given) [MEVALONATE]: the LC retention time in series [1] is 6.07 min; in series [2], 3.94 min; in series [3], 1.99 min.

As for `CC(=O)NC(C)C(=O)O` (stereo not given) [N-ACETYLALANINE], the LC retention time in series [2] was 4.75 min; in series [3], 1.97 min.

Take `CC(=O)NC(CC(=O)O)C(=O)O` (stereo not given) [N-ACETYLASPARTATE]: the LC retention time is 8.84 min in series [1], 3.48 min in series [2] and 1.45 min in series [3].

As to `CC(=O)NC(CS)C(=O)O` (stereo not given) [N-ACETYLCYSTEINE], the LC retention time was 1.88 min in series [2] and 2.62 min in series [3].

With `CC(=O)NCC(=O)O` [N-ACETYLGLYCINE], the LC retention time in series [1] is 7.17 min; in series [2], 5.48 min; in series [3] it was 1.41 min.

Turning to `O=C([O-])c1cccnc1` [NICOTINATE], the figures for the LC retention time in series [1], in series [2] and in series [3] were 5.76 min, 3.5 min and 1.41 min, respectively.

For `CCCCC(N)C(=O)O` (stereo not given) [NORLEUCINE], the LC retention time is 7.04 min in series [1], 7.75 min in series [2] and 2.19 min in series [3].

`CCCC(N)C(=O)O` (stereo not given) [NORVALINE]: the results for the LC retention time in series [1], in series [2] and in series [3] were 7.52 min, 8.68 min and 1.33 min, respectively.

In the case of `NC(CCOC(=O)CCC(=O)O)C(=O)O` (stereo not given) [O-SUCCINYL-HOMOSERINE], the LC retention time in series [1] is 8.3 min; in series [2], 11.8 min; in series [3] it was 1.45 min.

Take `O=C(O)CCCCCCCCCCCO` [OMEGA-HYDROXYDODECANOATE]: the LC retention time is 0.84 min in series [2] and 8.62 min in series [3].

Turning to `Nc1nc2nccnc2c(=O)[nH]1` [PTERIN], the figures for the LC retention time in series [1], in series [2] and in series [3] were 6.57 min, 4.43 min and 2.05 min, respectively.

Regarding `c1ncc2[nH]cnc2n1` [PURINE], the LC retention time in series [1] was 3.4 min; in series [2], 1.89 min; in series [3] it was 1.92 min.

`Cc1ncc(CO)c(C=O)c1O` [PYRIDOXAL]: the LC retention time in series [1] is 2.6 min; in series [2] it was 1.81 min; in series [3], 1.4 min.

With `Nc1ncnc2c1ncn2C1OC(CSCCC([NH3+])C(=O)[O-])C(O)C1O` (stereo not given) [S-ADENOSYLHOMOCYSTEINE], the LC retention time in series [1] was 8.51 min; in series [3] it was 1.97 min.

With `CC=CC=CC(=O)[O-]` [SORBATE], the LC retention time in series [1] is 1.73 min; in series [3] it was 4.51 min.

Regarding `O=C(O)CCCCCCC(=O)O` [SUBERATE], the LC retention time in series [1] is 5.2 min; in series [2], 4.7 min; in series [3] it was 5.34 min.

With `O=C(O)CCC(=O)O` [SUCCINATE], the LC retention time in series [2] is 3.9 min; in series [3], 1.95 min.

On to `NC(=O)C1CCCN1C(=O)C(Cc1cnc[nH]1)NC(=O)C1CCC(=O)N1` (stereo not given) [THYROTROPIN RELEASING HORMONE], for which the LC retention time in series [1] was 6.53 min; in series [2] it was 8.34 min; in series [3], 2.14 min.

`O=c1cc[nH]c(=O)[nH]1` [URACIL]: the LC retention time in series [1] is 4.25 min; in series [2], 1.83 min; in series [3], 1.41 min.

As to `O=c1[nH]c(=O)c2[nH]c(=O)[nH]c2[nH]1` [URATE], the LC retention time in series [1] is 8.13 min; in series [2] it was 2.25 min; in series [3], 1.52 min.

As to `NC(=O)NCCC(=O)O` [UREIDOPROPIONATE], the LC retention time was 7.98 min in series [1], 5.27 min in series [2] and 1.4 min in series [3].

As to `O=C(O)C=Cc1cnc[nH]1` [UROCANATE], the LC retention time was 7.08 min in series [1], 4.08 min in series [2] and 1.43 min in series [3].

With `O=c1[nH]c(=O)c2ncn(C3OC(COP(=O)(O)O)C(O)C3O)c2[nH]1` (stereo not given) [XANTHOSINE-MONOPHOSPHATE], the LC retention time in series [1] is 10.2 min; in series [3], 1.45 min.
